Measured values published in patent US7323303B2, “Modified β-lactamases and uses thereof” (priority 2003, dated 2008).

Assays:
[1] = molecular target: T1, E166Cf enzyme (Bacillus cereus, UniProt P00809, E185C); assay: Detection of β-lactam antibiotics in milk by E166Cf fluorescence; settings: untreated milk; E166Cf 1.2×10^−7 M
T1 construct: made in house; host or cells: B. subtilis 1A304 (φ105MU331); then labelled chemically
T1 sequence (P00809 28-306 E185C): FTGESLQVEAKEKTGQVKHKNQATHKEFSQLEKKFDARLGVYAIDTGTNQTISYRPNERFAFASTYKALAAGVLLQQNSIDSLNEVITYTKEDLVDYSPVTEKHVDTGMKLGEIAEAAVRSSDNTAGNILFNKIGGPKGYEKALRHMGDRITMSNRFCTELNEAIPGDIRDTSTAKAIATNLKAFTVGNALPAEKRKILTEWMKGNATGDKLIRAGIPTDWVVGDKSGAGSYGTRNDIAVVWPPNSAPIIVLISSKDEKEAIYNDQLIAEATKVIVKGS
Protocol: Fluorescence measurements of the E166Cf enzyme in milk in the presence of penicillin G and ampicillin were performed on a FLUOstar microplate reader (BMG Labtechnologies) equipped with two sample injectors. Excitation and emission filters of 485 and 520 nm respectively were used. Milk (pasteurized and homogenized, Nestle Dairy Farm) was purchased at a local supermarket. The labeled enzyme was mixed with the milk sample in a 96-well microtiter plate (Corning Costar). The antibiotics were then added to the mixtures by the injectors.
FIGS. 21 and 22 show the results from the time-resolved fluorescence measurements of the labeled enzyme (1.2×10^−7 M) in untreated milk in the presence of various concentrations of penicillin G and ampicillin respectively.

[2] = molecular target: T2, E166Cf (fluorescein-labeled E166C mutant of β-lactamase I) (Bacillus cereus, UniProt P00809, E185C); assay: Spectrophotometric substrate hydrolysis, steady-state kinetics; format: biochemical
T2 construct: made in house; host or cells: B. subtilis 1A304 (φ105MU331); then labelled chemically
T2 sequence (P00809 28-306 E185C): T1 sequence (P00809 28-306 E185C)
Protocol: (§1) The hydrolytic activities of the wild-type β-lactamase I, E166C and E166Cf mutants towards penicillin G, penicillin V and ampicillin (Sigma) were monitored by the spectrophotometric method. The spectrophotometric measurements were performed on a Perkin Elmer Lambda Bio20 UV/Vis spectrometer. Substrate hydrolysis was monitored at a fixed wavelength: 235 nm for ampicillin, 232 nm for penicillin G and penicillin V. The initial rate of substrate hydrolysis occurring within 5 min was determined in duplicate at each of 6 different substrate concentrations in 50 mM potassium phosphate buffer (pH 7.0) at 20° C. The initial rates determined were then treated as described in Reference 5 to calculate the Michaelis constants (Km) and turnover numbers (kcat) using non-linear regression analysis (equation 1):
(§2) [formula] where v is the initial rate of substrate hydrolysis, Vmax the maximum rate of reaction, [S] the initial substrate concentration, Km the Michaelis constant and kcat=Vmax/[Enzyme].
(§3) The measured steady-state kinetic parameters for hydrolysis of penicillin G, penicillin V and ampicillin by the wild-type β-lactamase I, E166C and E166Cf mutants are summarized in Table 1.
At high substrate concentration (1.0×10^−5 and 1.0×10^−4 M), the penicillin substrates rapidly occupy the active sites to form the ES complexes, thus switching on the fluorescence of the fluorescein labels instantaneously. […] This can be verified by the fact that the ‘plateau time’ (8 and 22 min for 1.0×10^−5 and 1.0×10^−4 M penicillin G respectively) is consistent with the ‘substrate hydrolysis time’ determined by spectrophotometric assays (7 and 20 min for 1.0×10^−5 and 1.0×10^−4 M penicillin G respectively). When most of the penicillin substrates have been hydrolyzed to carboxylic acids, the fluorescence signal of the labeled enzyme will decline subsequently.

[3] = molecular target: T3, E. coli TEM-1 β-lactamase (Escherichia coli, UniProt P62593); assay: Drug screening: E166Cf fluorescence in presence of bacterial β-lactamase culture; format: biochemical; set-up: key: −: Decline in fluorescence signal (presence of beta-lactam hydrolysis); +: No decline in fluorescence signal (absence of beta-lactam hydrolysis); settings: E. coli TEM-1 culture, undiluted; antibiotic 1.0×10^−4 M; E166Cf 1.2×10^−7 M
T3 construct: made in house; host or cells: E. coli BL21(DE3); whole overnight culture used undiluted, not purified
T3 sequence (P62593 24-286 limits assumed): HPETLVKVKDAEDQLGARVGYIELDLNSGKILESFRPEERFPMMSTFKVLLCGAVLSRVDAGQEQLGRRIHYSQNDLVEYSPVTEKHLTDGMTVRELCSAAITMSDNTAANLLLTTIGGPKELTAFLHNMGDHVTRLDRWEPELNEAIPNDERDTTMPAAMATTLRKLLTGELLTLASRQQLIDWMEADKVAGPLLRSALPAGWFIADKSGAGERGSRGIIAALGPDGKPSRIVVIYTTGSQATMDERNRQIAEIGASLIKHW
Protocol: The use of the E166Cf enzyme in screening bacterial β-lactamases against various β-lactam antibiotics was investigated. The principle of our method is that when both E166Cf and bacterial β-lactamase are incubated with ‘β-lactamase-unstable’ antibiotics, the fluorescence of the E166Cf enzyme will be suppressed because of the greater catalytic efficiency of the bacterial enzyme. In contrast, when bacterial β-lactamases are screened against ‘β-lactamase-resistant’ antibiotics, the fluorescence of the E166Cf enzyme will be enhanced because of the poor hydrolytic activity of the bacterial enzyme. Thus, any β-lactam antibiotic that causes the labeled enzyme to increase its fluorescence intensity in the presence of bacterial β-lactamases can be used in clinical treatments.
The TEM-1 β-lactamase was expressed in E. coli. BL21(DE3). Preparation of the TEM-1 β-lactamase was performed as follows. A bacterial strain was streaked on an agar plate containing 100 μg/ml ampicillin, and the plate was incubated at 37° C. for 24 h. A single bacterial colony from the plate was inoculated into 100 ml of sterilized LB broth (28 g/l) which was then incubated at 37° C. with shaking at 280 rpm overnight. After overnight incubation, the bacterial culture was harvested and stored at −20° C.
Fluorescence measurements of the E166Cf enzyme in the presence of bacterial cultures and β-lactam antibiotics were performed on a FLUOstar microplate reader (BMG Labtechnologies) equipped with two sample injectors. Excitation and emission filters of 485 and 520 nm respectively were used. For B. cereus penPC β-lactamase, B. licheniformis penP β-lactamase and B. cereus β-lactamase II, the labeled enzymes were mixed with the bacterial cultures, and the mixtures were made up to 300 μl with 50 mM phosphate buffer (pH 7.0) in a 96-well microtiter plate (Corning Costar). For the purpose of comparison, B. subtilis cultures, which produced no β-lactamase, were set up as negative controls. For E. coli. TEM-1 β-lactamase, the labeled enzymes were mixed with the bacterial cultures without dilution. E. coli. cultures, which produced no β-lactamase, were set up as negative controls for comparison. The antibiotics were then added to the bacterial samples by the injectors.
The results from the time-resolved fluorescence measurements of the labeled enzyme (1.2×10^−7 M) in the presence of various bacterial cultures and β-lactam antibiotics (1.0×10^−4 M) are shown in FIGS. 23 to 26.

[4] = molecular target: T4, wild-type β-lactamase I (Bacillus cereus, UniProt P00809); assay: Spectrophotometric substrate hydrolysis, steady-state kinetics; format: biochemical; settings: 50 mM potassium phosphate buffer pH 7.0, 20° C.
T4 construct: made in house; host or cells: B. subtilis 1A304 (φ105MU331)
T4 sequence (P00809 28-306): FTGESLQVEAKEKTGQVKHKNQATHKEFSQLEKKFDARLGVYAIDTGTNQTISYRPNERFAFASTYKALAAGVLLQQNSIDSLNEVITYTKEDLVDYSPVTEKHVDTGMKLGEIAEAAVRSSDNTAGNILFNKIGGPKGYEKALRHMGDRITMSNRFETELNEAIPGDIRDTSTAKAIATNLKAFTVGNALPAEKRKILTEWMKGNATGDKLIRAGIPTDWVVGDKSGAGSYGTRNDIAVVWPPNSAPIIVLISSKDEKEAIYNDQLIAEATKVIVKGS
Protocol: as §1, §2, §3

[5] = molecular target: T5, E166C mutant of β-lactamase I (Bacillus cereus, UniProt P00809, E185C); assay: as above; format: biochemical; settings: 50 mM potassium phosphate buffer pH 7.0, 20° C.
T5 construct: made in house; host or cells: B. subtilis 1A304 (φ105MU331)
T5 sequence (P00809 28-306 E185C): T1 sequence (P00809 28-306 E185C)
Protocol: as §1, §2, §3

[6] = E166Cf, 50 mM potassium phosphate buffer pH 7.0, 20° C.

For `CC1(C)S[C@@H]2[C@H](NC(=O)Cc3ccccc3)C(=O)N2[C@H]1C(=O)O` [Penicillin G, penicillin G], the “lowest concentration detected by the labeled enzyme” value [1] was 10^−6 M, the “substrate hydrolysis time determined by spectrophotometric assays” value ([2]; 1.0×10^−4 M antibiotic) was 20 min and the “substrate hydrolysis time determined by spectrophotometric assays” value ([2]; 1.0×10^−5 M antibiotic) was 7 min. For the same compound, the Km [2, 6] was 213 ± 11 µM, the kcat [2, 6] was 5.28 ± 0.09 s⁻¹ and the “fluorescence signal of E166Cf (beta-lactam hydrolysis)” value [3] was “−”. For the same compound, the Km [4] was 48 ± 3 µM, the kcat [4] was 2612 ± 320 s⁻¹ and the Km [5] was 72 ± 3 µM. The kcat [5] was 2.07 ± 0.02 s⁻¹.
